{"source": "patent US20060194969A1", "about": "“4-Substituted benzimidazoles and their uses as inhibitors of gastric secretion” (priority 2002, published 2006)", "data": [{"units": {"melting point": "°C"}, "values": [{"smiles": "CO[C@@H]1Cc2ccccc2[C@H]1Oc1cc(C(=O)N(C)C)cc2c1nc(C)n2C.O=C(O)C(=O)O", "note": "(relative stereo) [Example 12, 4-(trans-2,3-Dihydro-2-methoxy-1-indenyloxy)-6-(N,N-dimethylaminocarbonyl)-1,2-dimethyl-1H-benzimidazole Oxalate]", "melting point": "126 to 127"}, {"smiles": "Cc1nc2c(O[C@@H]3c4ccccc4C[C@H]3O)cc(C(=O)O)cc2n1C", "note": "(relative stereo) [Example 16, 4-(trans-2,3-Dihydro-2-hydroxy-1-indenyloxy)-1,2-dimethyl-1H-benzimidazole-6-carboxylic Acid]", "melting point": 306}, {"smiles": "CCOC(=O)c1cc(O[C@@H]2c3c(C)ccc(C)c3C[C@H]2O)c2nc(C)n(C)c2c1", "note": "(relative stereo) [Example 20, Ethyl 4-(trans-2,3-dihydro-2-hydroxy-4,7-dimethyl-1-indenyloxy)-1,2-dimethyl-1H-benzimidazole-6-carboxylate]", "melting point": 184}, {"smiles": "Cc1ccc(C)c2c1C[C@@H](O)[C@@H]2Oc1cc(C(=O)N(C)C)cc2c1nc(C)n2C", "note": "(relative stereo) [Example 22, 4-(trans-2,3-Dihydro-2-hydroxy-4,7-dimethyl-1-indenyloxy)-6-(N,N-dimethylaminocarbonyl)-1,2-dimethyl-1H-benzimidazole]", "melting point": 134}, {"smiles": "CCN(CCOC)C(=O)c1cc(O[C@@H]2c3ccccc3C[C@H]2O)c2nc(C)n(C)c2c1.O=C(O)C(=O)O", "note": "(relative stereo) [Example 24, 4-(trans-2,3-Dihydro-2-hydroxy-1-indenyloxy)-6-[N-(2-methoxyethyl)-N-ethyl-amino-carbonyl]-1,2-dimethyl-1H-benzimidazole Oxalate]", "melting point": 141}, {"smiles": "Cc1nc2c(O[C@@H]3c4ccccc4C[C@H]3O)cc(C(=O)NC3CC3)cc2n1C", "note": "(relative stereo) [Example 26, 6-(Cyclopropylaminocarbonyl)-4-(trans-2,3-dihydro-2-hydroxy-1-indenyloxy)-1,2-dimethyl-1H-benzimidazole]", "melting point": "148 to 149"}, {"smiles": "Cc1nc2c(N[C@@H]3c4ccccc4C[C@H]3O)cc(C(=O)N(C)C)cc2n1C", "note": "(relative stereo) [Example 51, 4-(trans-2,3-Dihydro-2-hydroxy-1-indenylamino)-6-(N,N-dimethylaminocarbonyl)-1,2-dimethyl-1H-benzimidazole]", "melting point": "219 to 221"}, {"smiles": "Cn1c(C2CC2)nc2c(O[C@@H]3c4ccccc4C[C@H]3O)cc(C(=O)O)cc21", "note": "(relative stereo) [Example 59, 2-Cyclopropyl-4-(trans-2,3-dihydro-2-hydroxy-1-indenyloxy)-1-methyl-1H-benzimidazole-6-carboxylic acid]", "melting point": "132 to 134"}, {"smiles": "CCc1cccc(C)c1COc1cc(C(=O)OC)cc2c1nc(C)n2C", "note": "[Example 1, Methyl 4-(2-ethyl-6-methyl-benzyloxy)-1,2-dimethyl-1H-benzimidazole-6-carboxylate]", "melting point": 157}, {"smiles": "COC(=O)c1cc(OCc2c(C)cccc2C)c2nc(C)n(C)c2c1", "note": "[Example 3, Methyl 4-(2,6-dimethyl-benzyloxy)-1,2-dimethyl-1H-benzimidazole-6-carboxylate]", "melting point": "165 to 169"}, {"smiles": "Cc1cccc(C)c1COc1cc(C(=O)O)cc2c1nc(C)n2C", "note": "[Example 4, 4-(2,6-Dimethyl-benzyloxy)-1,2-dimethyl-1H-benzimidazole-6-carboxylic Acid]", "melting point": "285 to 286"}, {"smiles": "Cc1nc2c(OCc3ccccc3)cc(CO)cc2n1C", "note": "[Example 5, 4-Benzyloxy-6-hydroxymethyl-1,2-dimethyl-1H-benzimidazole]", "melting point": "213 to 214"}, {"smiles": "COCc1cc(OCc2ccccc2)c2nc(C)n(C)c2c1", "note": "[Example 6, 4-Benzyloxy-6-methoxymethyl-1,2-dimethyl-1H-benzimidazole]", "melting point": 113}, {"smiles": "Cc1nc2c(OCc3ccccc3)cc(C(=O)N(C)C)cc2n1C", "note": "[Example 7, 4-Benzyloxy-6-(N,N-dimethylaminocarbonyl)-1,2-dimethyl-1H-benzimidazole]", "melting point": "159 to 160"}, {"smiles": "Cc1cccc(C)c1COc1cc(C(=O)N(C)C)cc2c1nc(C)n2C", "note": "[Example 9, 6-(N,N-Dimethylaminocarbonyl)-4-(2,6-dimethyl-benzyloxy)-1,2-dimethyl-1H-benzimidazole]", "melting point": 180}, {"smiles": "CCOC(=O)c1cc(NCc2c(C)cccc2CC)c2nc(C)n(C)c2c1", "note": "[Example 27, Ethyl 4-(2-ethyl-6-methyl-benzylamino)-1,2-dimethyl-1H-benzimidazole-6-carboxylate]", "melting point": "171 to 173"}, {"smiles": "CCOC(=O)c1cc(NCc2c(C)cccc2C)c2nc(C)n(C)c2c1", "note": "[Example 28, Ethyl 4-(2,6-dimethyl-benzylamino)-1,2-dimethyl-1H-benzimidazole-6-carboxylate]", "melting point": 190}, {"smiles": "CCOC(=O)c1cc(NCc2c(C)cccc2CC)c2nc(COC)n(C)c2c1", "note": "[Example 29, Ethyl 4-(2-ethyl-6-methyl-benzylamino)-2-methoxymethyl-1-methyl-1H-benzimidazole-6-carboxylate]", "melting point": "106 to 107"}, {"smiles": "CCOC(=O)c1cc(NCc2c(C)cccc2C)c2nc(COC)n(C)c2c1", "note": "[Example 30, Ethyl 4-(2,6-dimethyl-benzylamino)-2-methoxymethyl-1-methyl-1H-benzimidazole-6-carboxylate]", "melting point": "134 to 135"}, {"smiles": "CCc1cccc(C)c1CNc1cc(C(=O)O)cc2c1nc(C)n2C", "note": "[Example 31, 4-(2-Ethyl-6-methyl-benzylamino)-1,2-dimethyl-1H-benzimidazole-6-carboxylic Acid]", "melting point": "312 to 314"}, {"smiles": "Cc1cccc(C)c1CNc1cc(C(=O)O)cc2c1nc(C)n2C", "note": "[Example 32, 4-(2,6-Dimethyl-benzylamino)-1,2-dimethyl-1H-benzimidazole-6-carboxylic Acid]", "melting point": "315 to 318"}, {"smiles": "CCc1cccc(C)c1CNc1cc(C(=O)O)cc2c1nc(COC)n2C", "note": "[Example 33, 4-(2-Ethyl-6-methyl-benzylamino)-2-methoxymethyl-1-methyl-1H-benzimidazole-6-carboxylic Acid]", "melting point": "275 to 278"}, {"smiles": "COCc1nc2c(NCc3c(C)cccc3C)cc(C(=O)O)cc2n1C", "note": "[Example 34, 4-(2,6-Dimethyl-benzylamino)-2-methoxymethyl-1-methyl-1H-benzimidazole-6-carboxylic Acid]", "melting point": "269 to 272"}, {"smiles": "Cc1cccc(C)c1CNc1cc(C(=O)NCCO)cc2c1nc(C)n2C", "note": "[Example 36, 4-(2,6-Dimethyl-benzylamino)-6-(2-hydroxyethyl-aminocarbonyl)-1,2-dimethyl-1H-benzimidazole]", "melting point": "259 to 260"}, {"smiles": "COCc1nc2c(NCc3c(C)cccc3C)cc(C(=O)NCCO)cc2n1C", "note": "[Example 37, 4-(2,6-Dimethyl-benzylamino)-6-(2-hydroxyethyl-aminocarbonyl)-2-methoxymethyl-1-methyl-1H-benzimidazole]", "melting point": "186 to 187"}, {"smiles": "Cc1cccc(C)c1CNc1cc(C(N)=O)cc2c1nc(C)n2C", "note": "[Example 39, 4-(2,6-Dimethyl-benzylamino)-1,2-dimethyl-1H-benzimidazole-6-carboxamide]", "melting point": 272}, {"smiles": "CCc1cccc(C)c1CNc1cc(C(=O)N(C)C)cc2c1nc(C)n2COCc1ccccc1.O=C(O)C(=O)O", "note": "[Example 48, 1-Benzyloxymethyl-6-(N,N-dimethylaminocarbonyl)-4-(2-ethyl-6-methyl-benzylamino)-2-methyl-1H-benzimidazole Oxalate]", "melting point": "168 to 169"}, {"smiles": "COC(=O)Nc1cccc(C)c1CNc1cc(C(=O)N(C)C)cc2c1nc(C)n2C", "note": "[Example 50, 6-(N,N-Dimethylaminocarbonyl)-4-(2-methoxycarbonylamino-6-methyl-benzylamino)-1,2-dimethyl-1H-benzimidazole]", "melting point": "193 to 195"}, {"smiles": "CCOC(=O)c1cc(OCc2ccccc2)c2nc(C)n(C)c2c1", "note": "[Example 52, Ethyl 4-benzyloxy-1,2-dimethyl-1H-benzimidazole-6-carboxylate]", "melting point": 152}, {"smiles": "COC(=O)c1cc(OCc2ccccc2)c2nc(C)n(C)c2c1", "note": "[Example 53, Methyl 4-benzyloxy-1,2-dimethyl-1H-benzimidazole-6-carboxylate]", "melting point": 166}, {"smiles": "Cc1cccc(C)c1CNc1cc(C(=O)N2CC2)cc2c1nc(C)n2C", "note": "[Example 54, 6-(1-Aziridinylcarbonyl)-4-(2,6-dimethyl-benzylamino)-1,2-dimethyl-1H-benzimidazole]", "melting point": "201 to 202"}, {"smiles": "Cc1cccc(C)c1CNc1cc(C(=O)N(C)CCO)cc2c1nc(C)n2C", "note": "[Example 56, 4-(2,6-Dimethyl-benzylamino)-6-(N-2-hydroxyethyl-N-methylaminocarbonyl)-1,2-dimethyl-1H-benzimidazole]", "melting point": "177 to 178"}, {"smiles": "Cc1cccc(C)c1CNc1cc(C(=O)NN)cc2c1nc(C)n2C", "note": "[Example 57, 4-(2,6-Dimethyl-benzylamino)-1,2-dimethyl-1H-benzimidazole-6-carboxylic acid hydrazide]", "melting point": "277 to 278"}, {"smiles": "Cc1cccc(C)c1CNc1cc(CO)cc2c1nc(C)n2C", "note": "[Example 58, 4-(2,6-Dimethyl-benzylamino)-6-hydroxymethyl-1,2-dimethyl-1H-benzimidazole]", "melting point": "245 to 246"}, {"smiles": "Cc1ccccc1CNc1cc(C(=O)N(C)C)cc2c1nc(C)n2C", "note": "[Example 61, 6-(N,N-Dimethylaminocarbonyl)-1,2-dimethyl-4-(2-methyl-benzylamino)-1H-benzimidazole]", "melting point": "158 to 159"}, {"smiles": "Cc1coc(C)c1N(C)c1cc(C(=O)N(C)C)cc2c1nc(C)n2C", "note": "[Example 62, 6-(N,N-Dimethylaminocarbonyl)-4-(2,4-dimethyl-furan-3-yl-methylamino)-1,2-dimethyl-1H-benzimidazole]", "melting point": "163 to 164"}, {"smiles": "Cc1cccc(C)c1CNc1cc(S(=O)(=O)N(C)C)cc2c1nc(C)n2C", "note": "[Example 63, 7-(2,6-Dimethyl-benzylamino)-2,3-dimethyl-3H-benzimidazole-5-sulfonic acid dimethylamide]", "melting point": "237 to 238"}, {"smiles": "CCOC(=O)c1cc(NCc2c(C)cccc2C)c2nc(C)n(COCc3ccccc3)c2c1", "note": "[Example 64, Ethyl1-benzyloxymethyl-4-(2,6-dimethyl-benzylamino)-2-methyl-1H-benzimidazole-6-carboxylate]", "melting point": "155 to 156"}]}]}
